US20190136254A1, “ALS Inhibitor Herbicide Tolerant Mutant Plants” (BASF SE, priority 2013, published 2019)
Positions count from the first letter of the chain named. In names and notes the source's numbering stands.

B1: P197S: AHAS protein comprising the P197S mutation (protein, listed as Arabidopsis thaliana)
chain: MAAATTTTTTSSSISFSTKPSPSSSKSPLPISRFSLPFSLNPNKSSSSSRRRGIKSSSPSSISAVLNTTTNVTTTPSPTKPTKPETFISRFAPDQPRKGADILVEALERQGVETVFAYPGGASMEIHQALTRSSSIRNVLPRHEQGGVFAAEGYARSSGKPGICIATSGPGATNLVSGLADALLDSVPLVAITGQVSRRMIGTDAFQETPIVEVTRSITKHNYLVMDVEDIPRIIEEAFFLATSGRPGPVLVDVPKDIQQQLAIPNWEQAMRLPGYMSRMPKPPEDSHLEQIVRLISESKKPVLYVGGGCLNSSDELGRFVELTGIPVASTLMGLGSYPCDDELSLHMLGMHGTVYANYAVEHSDLLLAFGVRFDDRVTGKLEAFASRAKIVHIDIDSAEIGKNKTPHVSVCGDVKLALQGMNKVLENRAEELKLDFGVWRNELNVQKQKFPLSFKTFGEAIPPQYAIKVLDELTDGKAIISTGVGQHQMWAAQFYNYKKPRQWLSSGGLGAMGFGLPAAIGASVANPDAIVVDIDGDGSFIMNVQELATIRVENLPVKVLLLNNQHLGMVMQWQDRFYKANRAHTFLGDPAQEDEIFPNMLLFAAACGIPAARVTKKADLREAIQTMLDTPGPYLLDVICPHQEHVLPMIPSGGTFNDVITEGDGRIKY
B2: W574L: AHAS protein comprising the W574L mutation (protein, listed as Arabidopsis thaliana)
chain: B1 chain with S197P, W574L
B3: P197S-W574L (in one protein): AHAS protein comprising both the P197S and W574L mutation in one ALS protein (protein, listed as Arabidopsis thaliana)
chain: B1 chain with W574L

Tests used:
[1] = system: wild-type (WT) oilseed rape; assay: Field test of visible phytotoxicity upon herbicide spraying, wild-type; type: in vivo, Brassica napus; conditions: g ai/ha: imazamox 40, bispyribac-sodium 50, propoxycarbazone-sodium 70, mesosulfuron-methyl 60, pyroxsulam 12.5 + cloquintocet-mexyl 37.5, each + rapeseed oil methylated 366.5, 0%=no phytotoxic effects, 100%=all plants killed
Excerpt: (§1) Seeds of spring oilseed rape homozygous for HETO132 and HETO134, and seeds of spring oilseed rape homozygous for HETO133 and HETO 134 were sown in a field according to typical practical agricultural methods. Several ALS inhibitor herbicides were applied to the oilseed rape plants by using specific spray equipment for small plot applications. […] The use of all herbicides in the test lead to a clearly better tolerance of the spring oilseed rape lines homozygous for HETO132 and HETO134 as compared to a standard variety not comprising ALS alleles according to the invention.

[2] = system: oilseed rape homozygous for HETO133 and HETO134; assay: Field test of visible phytotoxicity upon herbicide spraying, HETO133-HETO134; type: in vivo, Brassica napus; conditions: g ai/ha: imazamox 40, bispyribac-sodium 50, propoxycarbazone-sodium 70, mesosulfuron-methyl 60, pyroxsulam 12.5 + cloquintocet-mexyl 37.5, each + rapeseed oil methylated 366.5, 0%=no phytotoxic effects, 100%=all plants killed
Excerpt: as §1

[3] = system: oilseed rape homozygous for HETO132 and HETO134; assay: Field test of visible phytotoxicity upon herbicide spraying, HETO132-HETO134; type: in vivo, Brassica napus; conditions: g ai/ha: imazamox 40, bispyribac-sodium 50, propoxycarbazone-sodium 70, mesosulfuron-methyl 60, pyroxsulam 12.5 + cloquintocet-mexyl 37.5, each + rapeseed oil methylated 366.5, 0%=no phytotoxic effects, 100%=all plants killed
Excerpt: as §1

[4] = molecular target: AHAS protein WT (Arabidopsis thaliana, UniProt P17597); assay: biochemical
Sequence of AHAS protein WT (P17597 56-670): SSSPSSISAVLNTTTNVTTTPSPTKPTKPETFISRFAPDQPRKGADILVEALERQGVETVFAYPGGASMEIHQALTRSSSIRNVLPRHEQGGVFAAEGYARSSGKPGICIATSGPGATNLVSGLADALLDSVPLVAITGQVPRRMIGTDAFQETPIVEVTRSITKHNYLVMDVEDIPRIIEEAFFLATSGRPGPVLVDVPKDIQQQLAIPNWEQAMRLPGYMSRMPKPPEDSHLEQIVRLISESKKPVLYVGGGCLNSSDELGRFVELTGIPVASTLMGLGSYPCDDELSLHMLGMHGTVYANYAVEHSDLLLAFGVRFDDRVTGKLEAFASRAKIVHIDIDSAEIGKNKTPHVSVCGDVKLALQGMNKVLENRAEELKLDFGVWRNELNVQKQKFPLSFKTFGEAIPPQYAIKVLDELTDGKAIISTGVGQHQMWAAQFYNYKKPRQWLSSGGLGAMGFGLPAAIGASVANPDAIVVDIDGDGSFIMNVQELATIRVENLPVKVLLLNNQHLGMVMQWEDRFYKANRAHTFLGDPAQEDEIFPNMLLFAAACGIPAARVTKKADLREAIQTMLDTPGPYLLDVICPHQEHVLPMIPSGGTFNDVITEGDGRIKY
Description: (§2) Bacteria are grown at 37° C. in LB-medium containing 100 mg/l carbenicillin and 25 mg/l canamycin, induced with 1 mM isopropyl-β-D-thiogalactopyranoside at an OD600 of 0.6, cultivated for 16 hours at 18° C. and harvested by, e.g., centrifugation. Bacterial pellets are resuspended in 100 mM sodium phosphate buffer pH 7.0 containing 0.1 mM thiamine-pyrophosphate, 1 mM MgCl2, and 1 μM FAD at a concentration of 1 gram wet weight per 25 ml of buffer and disrupted by, e.g., sonification. The crude protein extract obtained after centrifugation is used for ALS activity measurements.
(§3) ALS protein can be extracted from leaves or tissue cultures, such as B. napus or B. juncea leaves, or B. napus or B. juncea tissue cultures as described by Ray (Plant Physiol, 1984, 75:827-831). An ALS assays can be carried out in 96-well microtiter plates using a modification of the procedure described by Ray (1984): The reaction mixture contains 20 mM potassium phosphate buffer pH 7.0, 20 mM sodium pyruvate, 0.45 mM thiamine-pyrophosphate, 0.45 mM MgCl2, 9 μM FAD. ALS enzyme and various concentrations of ALS inhibitors can be mixed in a final volume of 90 μl. Assays can be initiated by adding enzyme and the assays can be terminated after 75 min incubation at 30° C. by the addition of 40 μl 0.5 M H2SO4.

[5] = molecular target: AHAS protein comprising the P197S mutation (Arabidopsis thaliana, UniProt P17597, P197S); assay: biochemical; conditions: for Resistance Factor P197S: AHAS P197S relative to WT
Sequence of AHAS protein comprising the P197S mutation (P17597 56-670 P197S): as the sequence (P17597 56-670) above, with P142S counted along it
Description: as §2, §3

[6] = molecular target: AHAS protein comprising the W574L mutation (Arabidopsis thaliana, UniProt P17597, W574L); assay: biochemical; conditions: for Resistance Factor W574L: AHAS W574L relative to WT
Sequence of AHAS protein comprising the W574L mutation (P17597 56-670 W574L): as the sequence (P17597 56-670) above, with W519L counted along it
Description: as §2, §3

[7] = molecular target: AHAS protein comprising both the P197S and W574L mutation in one ALS protein (Arabidopsis thaliana, UniProt P17597, P197S/W574L); type: biochemical; conditions: both mutations in one ALS protein; for Resistance Factor P197S-W574L (in one protein): relative to WT
Sequence of AHAS protein comprising both the P197S and W574L mutation in one ALS protein (P17597 56-670 P197S/W574L): as the sequence (P17597 56-670) above, with P142S, W519L counted along it
Description: as §2, §3

[8] = molecular target: mixture of two ALS proteins, one comprising the P197S and the other the W574L mutation (Arabidopsis thaliana, UniProt P17597, P197S/W574L); assay: biochemical; conditions: for Resistance Factor P197S & W574L (mixture): calculated mixture of two ALS proteins, relative to WT
Sequence of mixture of two ALS proteins, one comprising the P197S and the other the W574L mutation (P17597 56-670 P197S/W574L): as the sequence (P17597 56-670) above, with P142S, W519L counted along it

[9] = system: Brassica napus hypocotyl derived callus; assay: Selection of hypocotyl derived callus on medium containing Foramsulfuron; type: cell-based
Description: Five day old seedlings were used for the preparation of hypocotyl segments 7-10 mm in length. Hypocotyl segments were transferred to 14 cm Petri plates containing 75 ml of M-338 [H76] callus induction medium (25 explants/plate). M-338 [H76] medium is MS salts and vitamins (Murashige and Skoog, 1962), 20 g/l sucrose, 0.5 g/l MES, 0.5 g/l adenine sulphate, 5 mg/l silver nitrate, 0.5 mg/l 2,4-D, 0.2 mg/l kinetin and solidified with 5.5 g/l agarose (pH 5.7). Dishes were sealed and cultured at 24° C. with standard light conditions (16 h/day). After 3 weeks, calli developing at the ends of the explants were transferred to fresh M-338 [H76] plates (25 calli/plate). Calli were subcultured to fresh medium every 3 weeks (larger calli cut into two pieces).
Hypocotyl derived callus (9 weeks old) was used for the selection of herbicide resistant mutants. Small pieces of callus were plated on M-338 [H76] medium containing 25 nM of the ALS inhibitor Foramsulfuron (CAS RN 173159-57-4). […] Dishes were cultured at 24° C. with standard light conditions (16 h/day). After 3 weeks, the calli were divided into 2 pieces each and replated on M-338 [H76] medium containing 50 nM Foramsulfuron. […]

[10] = Kinetic parameters of enzymatic activity of AHAS proteins; type: biochemical; conditions: enzymatic activity of the AHAS protein
Description: The ALS inhibitor sensitivity and kinetic parameters of AHAS proteins comprising the P197S mutation, the W574L mutation, and both the P197S and W574L mutation in one ALS protein, were determined essentially as described in WO 2013/127766. ALS inhibitor sensitivity of a mixture of two ALS proteins, one of which comprising the P197S and the other comprising the W574L mutations were calculated as described in WO 2013/127766.

Molecule	IC50 [4] [nM]	IC50 [5] [nM]	Resistance Factor P197S [5]	IC50 [6] [µM]	Resistance Factor W574L [6]	pI50 P197S-W574L (in one protein) [7]	Resistance Factor P197S-W574L (in one protein) [7]	IC50 [8] [nM]	Resistance Factor P197S & W574L (mixture) [8]	Km [10] [mM]	Vmax [10] [deltaOD550/min mg protein]	other results
COc1cc(OC)nc(Oc2cccc(Oc3nc(OC)cc(OC)n3)c2C(=O)O)n1 [Bispyribac-sodium, bispyribac-sodium]	15.8	79.4	4	7.94	447	<4	>5623	794	40			Percentage phytotoxicity 9 DAA wild-type [1]: 76.7%; Percentage phytotoxicity 16 DAA wild-type [1]: 98.3%; Percentage phytotoxicity 24 DAA wild-type [1]: 100%; Percentage phytotoxicity 9 DAA HETO133-HETO134 [2]: 56.7%; Percentage phytotoxicity 16 DAA HETO133-HETO134 [2]: 88.3%; Percentage phytotoxicity 24 DAA HETO133-HETO134 [2]: 92.7%; Percentage phytotoxicity 9 DAA HETO132-HETO134 [3]: 46.7%; Percentage phytotoxicity 16 DAA HETO132-HETO134 [3]: 71.7%; Percentage phytotoxicity 24 DAA HETO132-HETO134 [3]: 43.3%
COc1cc(OC)nc(NC(=O)NS(=O)(=O)c2cc(NC=O)ccc2C(=O)N(C)C)n1 [Foramsulfuron, foramsulfuron]	7.94	100	12	50.1	5888	<4	>11748	2510	398			effect on callus growth ([9]; 25 nM in M-338 [H76] medium, 9 weeks old hypocotyl derived callus): partially inhibitory to callus growth but not lethal; effect on WT tissues ([9]; 250 nM in M-338 [H76] medium): clearly inhibitory to WT tissues
B1										5.5	50.0	
B2										7	54.4	
B3										31.5	87.7	
